Data from ChEMBL document CHEMBL5034019, “Discovery of the Next-Generation Pan-TRK Kinase Inhibitors for the Treatment of Cancer” (J Med Chem, 2021).
Calls of active or inactive are those of the source. No cut-off for these calls is given here.

Experiments:
[1] = molecular target: Proto-oncogene tyrosine-protein kinase receptor Ret (Homo sapiens) (UniProt P07949); test: Inhibition of recombinant human Ret (658 to end residues) assessed as residual activity at 0.5 uM using KKKSPGEYVNIEFG as substrate incubated for 40 mins in presence of [gamma33P]ATP by scintillation counting based radiometry assay relative to control
[2] = Half life in male Sprague-Dawley rat at 2 mg/kg, iv measured up to 24 hrs by LC-MS/MS analysis; format: ADME, organism-based; settings: in vivo
Homo sapiens = species on record: Homo sapiens; test: Inhibition of recombinant […] human B-Raf V599E mutant (416 to end residues) assessed as residual activity at 0.5 uM using myelin basic protein as substrate incubated for 40 mins in presence of [gamma-33ATP] by scintillation counting based radiometry assay relative to control
[3] = tested on: Mast/stem cell growth factor receptor Kit (Homo sapiens), P10721 [D816V]; test: Inhibition of recombinant human C-Kit D816V mutant (544 to end residues) assessed as residual activity at 0.5 uM poly(Glu, Tyr) 4:1 as substrate incubated 40 mins in presence of [gamma-33ATP] by scintillation counting based radiometry assay relative to control
[4] = tested on: Epidermal growth factor receptor (Homo sapiens), P00533 [T790M]; test: Inhibition of recombinant human EGFR T790M mutant (696 to end residues) assessed as residual activity at 0.5 uM using poly(Glu, Tyr) 4:1 as substrate at 40 mins in presence of [gamma-33ATP] by scintillation counting based radiometry assay relative to control
[5] = tested on: Hepatocyte growth factor receptor (Homo sapiens), P08581 [D1246H]; test: Inhibition of recombinant human Met D1246H mutant (974 to end residues) assessed as residual activity at 0.5 uM using KKKGQEEEYVFIE as substrate incubated for 40 mins in presence of [gamma-33P]-ATP by scintillation counting method relative to control
[6] = tested on: Hepatocyte growth factor receptor (Homo sapiens), P08581 [M1268T]; test: Inhibition of recombinant human Met M1268T mutant (974 to end residues) assessed as residual activity at 0.5 uM using KKKGQEEEYVFIE as substrate incubated for 40 mins in presence of [gamma-33P]-ATP by scintillation counting method relative to control
[7] = molecular target: Proto-oncogene tyrosine-protein kinase ROS (Homo sapiens, UniProt P08922)
Description: Inhibition of ROS1 (unknown origin) incubated for 120 mins in presence of 33P-ATP

[8] = molecular target: ALK tyrosine kinase receptor (Homo sapiens, UniProt Q9UM73)
Description: Inhibition of ALK (unknown origin) incubated for 120 mins in presence of 33P-ATP

[9] = tested on: Tyrosine-protein kinase Blk (Homo sapiens), P51451 [UNDEFINED MUTATION]; test: Inhibition of full-length recombinant human BLK M287V mutant assessed as residual activity at 0.5 uM using poly(Glu, Tyr) 4:1 as substrate measured after 40 mins in presence of [gamma33P]ATP by scintillation counting method relative to control
[10] = tested on: Platelet-derived growth factor receptor alpha (Homo sapiens), P16234 [D842V]; test: Inhibition of human PDGFRalpha D842V mutant (550 to end residues) assessed as residual activity at 0.5 uM using poly(Glu, Tyr) 4:1 as substrate measured after 40 mins in presence of [gamma33P]ATP by scintillation counting based radiometry assay relative to control
[11] = Toxicity in […] xenografted with mouse BaF3 cells transfected with ETV6-NTRK3-G623R mutant assessed as death at 100 mg/kg, po administered once daily for 21 days and measured twice weekly; format: organism-based; settings: in vivo, 504 h, time 21 day
[12] = Half life in Sprague-Dawley rat at 3 mg/kg measured up to 24 hrs by LC-MS/MS analysis; format: ADME, organism-based; settings: in vivo
[13] = Toxicity in mouse xenografted with mouse BaF3 cells transfected with LMNA-NTRK1-G595R mutant assessed as unkempt appearance at 100 mg/kg, po administered once daily for 21 days and measured twice weekly; settings: in vivo, 504 h
BaF3 = test: Antitumor activity against mouse BaF3 cells transfected with ETV6-NTRK3 cells xenografted in mouse assessed as tumor growth inhibition at 100 mg/kg, po administered once daily for 21 days and measured twice weekly; settings: time 21.0 day
[14] = Toxicity in mouse xenografted with mouse BaF3 cells transfected with LMNA-NTRK1 assessed as death at 100 mg/kg, po administered once daily for 21 days and measured twice weekly; settings: in vivo, 504 h

Chain of Proto-oncogene tyrosine-protein kinase ROS (P08922 whole entry): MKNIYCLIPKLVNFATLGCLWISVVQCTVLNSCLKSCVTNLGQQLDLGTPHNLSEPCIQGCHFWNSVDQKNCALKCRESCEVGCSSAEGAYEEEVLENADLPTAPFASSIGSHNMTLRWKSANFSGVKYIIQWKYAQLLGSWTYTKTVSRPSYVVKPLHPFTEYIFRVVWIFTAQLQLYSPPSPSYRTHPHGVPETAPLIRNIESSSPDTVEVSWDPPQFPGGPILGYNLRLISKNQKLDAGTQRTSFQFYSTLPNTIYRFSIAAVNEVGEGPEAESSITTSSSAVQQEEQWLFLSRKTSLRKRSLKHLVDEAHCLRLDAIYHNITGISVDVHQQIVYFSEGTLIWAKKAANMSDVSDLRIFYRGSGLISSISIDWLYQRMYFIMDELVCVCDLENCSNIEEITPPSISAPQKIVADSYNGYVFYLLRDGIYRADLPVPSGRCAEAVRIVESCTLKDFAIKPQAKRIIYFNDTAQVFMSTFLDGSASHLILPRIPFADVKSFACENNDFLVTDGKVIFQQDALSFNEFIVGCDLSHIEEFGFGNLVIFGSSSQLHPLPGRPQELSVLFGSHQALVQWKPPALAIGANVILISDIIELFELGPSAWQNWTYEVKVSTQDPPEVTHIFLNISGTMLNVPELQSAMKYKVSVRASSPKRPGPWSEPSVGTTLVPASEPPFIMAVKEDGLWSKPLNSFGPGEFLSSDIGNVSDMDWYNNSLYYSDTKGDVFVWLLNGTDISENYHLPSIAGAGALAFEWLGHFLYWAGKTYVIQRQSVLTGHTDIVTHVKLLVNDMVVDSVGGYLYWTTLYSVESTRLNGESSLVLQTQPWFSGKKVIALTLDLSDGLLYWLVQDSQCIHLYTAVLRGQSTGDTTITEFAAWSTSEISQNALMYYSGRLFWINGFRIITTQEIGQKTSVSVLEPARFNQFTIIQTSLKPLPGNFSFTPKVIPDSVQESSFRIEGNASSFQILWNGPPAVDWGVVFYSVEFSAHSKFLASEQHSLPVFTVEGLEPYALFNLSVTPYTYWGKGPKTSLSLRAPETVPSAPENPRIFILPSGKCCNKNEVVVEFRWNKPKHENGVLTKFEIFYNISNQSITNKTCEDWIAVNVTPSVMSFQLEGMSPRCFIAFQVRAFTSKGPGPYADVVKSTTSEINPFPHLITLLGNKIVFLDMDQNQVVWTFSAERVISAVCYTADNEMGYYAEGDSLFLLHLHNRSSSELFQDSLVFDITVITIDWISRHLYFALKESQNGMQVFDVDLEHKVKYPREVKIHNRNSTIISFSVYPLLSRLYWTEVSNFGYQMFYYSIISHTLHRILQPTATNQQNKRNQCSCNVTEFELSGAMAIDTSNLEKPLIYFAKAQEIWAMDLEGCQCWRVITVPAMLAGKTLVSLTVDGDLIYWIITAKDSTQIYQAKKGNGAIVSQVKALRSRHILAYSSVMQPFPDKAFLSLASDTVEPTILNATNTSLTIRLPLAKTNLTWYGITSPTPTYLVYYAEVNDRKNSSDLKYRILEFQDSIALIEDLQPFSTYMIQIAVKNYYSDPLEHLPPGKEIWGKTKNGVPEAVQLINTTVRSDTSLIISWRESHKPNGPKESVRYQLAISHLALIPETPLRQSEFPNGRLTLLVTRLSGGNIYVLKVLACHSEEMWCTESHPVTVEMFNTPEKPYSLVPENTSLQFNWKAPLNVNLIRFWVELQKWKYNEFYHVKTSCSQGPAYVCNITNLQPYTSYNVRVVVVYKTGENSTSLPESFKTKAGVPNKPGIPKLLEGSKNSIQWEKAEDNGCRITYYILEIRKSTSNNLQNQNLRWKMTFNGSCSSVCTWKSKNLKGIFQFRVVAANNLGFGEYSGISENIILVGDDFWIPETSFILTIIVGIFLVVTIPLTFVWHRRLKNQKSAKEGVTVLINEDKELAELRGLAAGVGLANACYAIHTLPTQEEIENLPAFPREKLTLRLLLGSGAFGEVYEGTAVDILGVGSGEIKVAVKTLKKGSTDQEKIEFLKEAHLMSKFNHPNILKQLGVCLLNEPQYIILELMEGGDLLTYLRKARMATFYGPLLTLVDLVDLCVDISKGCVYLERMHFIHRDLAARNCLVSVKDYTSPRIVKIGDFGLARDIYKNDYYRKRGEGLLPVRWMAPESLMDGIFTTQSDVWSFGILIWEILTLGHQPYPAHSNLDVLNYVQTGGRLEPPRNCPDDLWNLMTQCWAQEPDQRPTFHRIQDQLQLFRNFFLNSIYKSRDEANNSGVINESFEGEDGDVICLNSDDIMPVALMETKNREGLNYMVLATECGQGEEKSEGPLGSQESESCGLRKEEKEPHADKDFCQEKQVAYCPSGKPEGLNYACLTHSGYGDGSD
Chain of Tyrosine-protein kinase Blk (Homo sapiens), P51451 [UNDEFINED MUTATION] (P51451 whole entry, looked up, stated change not applied): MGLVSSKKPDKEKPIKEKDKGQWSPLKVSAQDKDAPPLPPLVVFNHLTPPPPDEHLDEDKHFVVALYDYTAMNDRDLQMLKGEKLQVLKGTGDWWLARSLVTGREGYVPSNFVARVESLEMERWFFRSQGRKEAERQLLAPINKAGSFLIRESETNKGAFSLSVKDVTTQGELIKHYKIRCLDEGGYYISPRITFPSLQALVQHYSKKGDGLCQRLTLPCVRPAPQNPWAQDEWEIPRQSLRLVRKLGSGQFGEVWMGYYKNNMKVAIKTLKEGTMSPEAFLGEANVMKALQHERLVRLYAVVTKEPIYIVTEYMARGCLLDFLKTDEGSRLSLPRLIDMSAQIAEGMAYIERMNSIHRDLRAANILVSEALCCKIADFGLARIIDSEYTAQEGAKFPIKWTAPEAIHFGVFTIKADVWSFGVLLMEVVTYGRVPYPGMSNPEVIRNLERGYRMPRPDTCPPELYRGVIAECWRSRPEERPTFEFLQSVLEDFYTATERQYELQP
Chain of Platelet-derived growth factor receptor alpha (Homo sapiens), P16234 [D842V] (P16234 whole entry D842V): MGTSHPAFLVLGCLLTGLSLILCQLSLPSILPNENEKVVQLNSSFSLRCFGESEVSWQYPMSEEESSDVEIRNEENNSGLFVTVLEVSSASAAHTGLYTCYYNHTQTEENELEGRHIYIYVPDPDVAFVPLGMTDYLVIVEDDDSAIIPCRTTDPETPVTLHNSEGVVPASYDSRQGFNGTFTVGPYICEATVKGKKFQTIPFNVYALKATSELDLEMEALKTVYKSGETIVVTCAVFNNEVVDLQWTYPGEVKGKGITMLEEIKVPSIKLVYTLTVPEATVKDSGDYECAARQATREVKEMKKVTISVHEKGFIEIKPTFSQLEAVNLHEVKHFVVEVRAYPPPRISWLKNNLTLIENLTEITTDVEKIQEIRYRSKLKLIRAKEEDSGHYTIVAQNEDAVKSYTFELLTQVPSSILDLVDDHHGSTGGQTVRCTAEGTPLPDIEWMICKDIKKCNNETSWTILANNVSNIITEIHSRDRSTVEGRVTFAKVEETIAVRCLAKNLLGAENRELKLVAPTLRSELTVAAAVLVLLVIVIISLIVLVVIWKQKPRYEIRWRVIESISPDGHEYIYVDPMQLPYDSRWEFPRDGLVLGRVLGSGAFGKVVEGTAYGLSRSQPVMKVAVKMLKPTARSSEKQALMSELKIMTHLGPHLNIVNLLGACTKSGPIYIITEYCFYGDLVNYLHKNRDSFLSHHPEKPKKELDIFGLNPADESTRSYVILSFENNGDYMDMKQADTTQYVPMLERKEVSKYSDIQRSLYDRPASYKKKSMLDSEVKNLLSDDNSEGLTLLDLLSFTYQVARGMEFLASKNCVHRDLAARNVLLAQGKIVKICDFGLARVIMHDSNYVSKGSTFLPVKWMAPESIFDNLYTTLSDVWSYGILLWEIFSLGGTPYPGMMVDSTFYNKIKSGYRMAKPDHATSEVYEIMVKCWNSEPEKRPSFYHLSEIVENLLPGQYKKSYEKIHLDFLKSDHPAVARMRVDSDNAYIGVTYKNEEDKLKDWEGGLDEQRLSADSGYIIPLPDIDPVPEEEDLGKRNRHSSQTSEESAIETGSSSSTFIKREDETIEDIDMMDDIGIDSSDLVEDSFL
Chain of Mast/stem cell growth factor receptor Kit (Homo sapiens), P10721 [D816V] (P10721 whole entry D816V): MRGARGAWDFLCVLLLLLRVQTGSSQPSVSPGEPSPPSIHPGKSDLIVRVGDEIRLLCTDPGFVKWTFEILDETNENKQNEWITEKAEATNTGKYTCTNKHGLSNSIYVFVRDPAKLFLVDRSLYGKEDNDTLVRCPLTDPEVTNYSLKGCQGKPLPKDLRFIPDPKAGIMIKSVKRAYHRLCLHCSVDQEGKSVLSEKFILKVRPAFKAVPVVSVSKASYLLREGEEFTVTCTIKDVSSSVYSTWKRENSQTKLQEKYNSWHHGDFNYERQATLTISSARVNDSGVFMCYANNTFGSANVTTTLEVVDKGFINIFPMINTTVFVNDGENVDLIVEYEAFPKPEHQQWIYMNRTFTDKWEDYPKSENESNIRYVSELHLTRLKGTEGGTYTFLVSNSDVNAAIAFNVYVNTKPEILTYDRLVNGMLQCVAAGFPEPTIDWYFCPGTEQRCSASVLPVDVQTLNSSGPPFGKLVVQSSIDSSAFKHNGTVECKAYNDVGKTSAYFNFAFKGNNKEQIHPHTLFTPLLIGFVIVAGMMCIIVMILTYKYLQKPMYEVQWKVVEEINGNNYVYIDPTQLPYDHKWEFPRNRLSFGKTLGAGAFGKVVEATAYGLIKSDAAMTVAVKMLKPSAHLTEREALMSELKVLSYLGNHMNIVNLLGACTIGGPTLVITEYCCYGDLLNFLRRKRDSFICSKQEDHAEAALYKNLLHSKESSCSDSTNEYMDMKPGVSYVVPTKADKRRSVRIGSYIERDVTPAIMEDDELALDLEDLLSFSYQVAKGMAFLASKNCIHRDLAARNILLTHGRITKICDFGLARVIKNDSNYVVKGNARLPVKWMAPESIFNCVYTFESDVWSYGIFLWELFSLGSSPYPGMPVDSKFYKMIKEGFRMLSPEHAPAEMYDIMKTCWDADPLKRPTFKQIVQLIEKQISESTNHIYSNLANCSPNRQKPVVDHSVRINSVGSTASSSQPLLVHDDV

Row | Activity [1] | half-life [2] | Activity (Homo sapiens) | Activity [3] | Activity [4] | Activity [5] | Activity [6] | IC50 [7] | IC50 [8] | Activity [9] | Activity [10] | SMILES | Activity [11] | half-life [12] | Activity [13] | Activity (BaF3) | Activity [14]
1 | 64% | 0.872 h | 87% | 101% | 105% | 91% | 86% | 1 nM | 182 nM | 46% | 102% | O=C1NC2(CC2)COc2ncc(F)cc2[C@H]2COCCN2c2ccn3ncc1c3n2 |  |  |  |  | 
2 |  |  |  |  |  |  |  |  |  |  |  | C[C@@H]1CCc2ncc(F)cc2[C@H]2CCCN2c2ccn3ncc(c3n2)C(=O)N1 [SELITRECTINIB] | Toxic | 1.2 h | Toxic | Active | Toxic
